Legend:
full-length hWNK1 = target: T1, full-length hWNK1 (Homo sapiens, UniProt Q9H4A3); assay: MicroScale Thermophoresis (MST), EGFP-tagged full-length WNK1 in HEK293T cell lysates; assay type: binding; conditions: 15 min incubation, lysates of EGFP-WNK1 expressing HEK293T cells
T1 construct: We overexpressed full‐length WNK1 fused with Green Fluorescent Protein (GFP); expressed in transfected cells; host or cells: HEK293T
Experimental: To validate the direct binding of bilirubin to WNK1, we performed a Microscale Thermophoresis (MST) analysis, which assesses the binding capacity of a compound by measuring the movement of proteins over a microscopic temperature gradient.^[ [26], [27] ^] We overexpressed full‐length WNK1 fused with Green Fluorescent Protein (GFP) in HEK‐293 cells, incubated the lysates with bilirubin at varying dilutions, and subjected them to precise MST measurements in capillaries. […] Furthermore, biliverdin, a structurally similar intermediate product generated before bilirubin formation, was used as a control.
(§1) All WNK1 clones were derived from the original untagged hWNK1 cDNA (NM_018979), which was modified and subcloned into the pcDNA3.1, referred to as “full‐length WNK1” throughout this study. Truncated constructs, including 1–190aa, 191–491aa, 1–491aa, and 491–2382aa fragments, were generated by PCR using the full‐length template and subsequently ligated into linearized pcDNA3.1 vectors. WNK2 was obtained from Addgene Plasmid #24569, and WNK3 was obtained from Addgene Plasmid #81723. Both were subjected to base modifications and cloned into pcDNA3.1. The WNK4 clone was derived from hWNK4 cDNA (NM_032387.5), modified, and subcloned into the pCMV3‐C‐GFPSpark vector.
In HEK293T cells, proteins tagged with green fluorescent protein (GFP) were expressed. […]

WNK1 (191–491) = target: T2, WNK1 (191–491) (Homo sapiens, UniProt Q9H4A3); assay: MST, EGFP-tagged WNK1 truncation 191–491; assay type: binding; conditions: WNK1 191–491, 15 min, HEK293T lysates
T2 construct: different lengths of WNK1 truncations (1–491, 1–190, 191–491, 491–2382); expressed in transfected cells; host or cells: HEK293T
Description: (§2) To further validate these findings, we constructed GFP‐tagged fusion proteins with different lengths of WNK1 truncations (1–491, 1–190, 191–491, 491–2382) based on the WNK1 domains (Figure 3E) and analyzed their binding capacity with bilirubin using MST analysis.^[ [29] ^]
as §1
(§3) In HEK293T cells, proteins tagged with green fluorescent protein (GFP) were expressed. The cells were lysed using the M‐PER Mammalian Protein Extraction Reagent (cat. no. 78505, Thermo Scientific) supplemented with protease inhibitors. Lysates were centrifuged at 12000 × g for 15 min at 4 °C, and the supernatant containing proteins was diluted 10‐fold with 1x PBST. […]

WNK1 (1–190) = target: T3, WNK1 (1–190) (Homo sapiens, UniProt Q9H4A3); assay: MST, EGFP-tagged WNK1 truncation 1–190; assay type: binding; conditions: WNK1 1–190 (non-kinase segment), 15 min, HEK293T lysates
T3 construct: different lengths of WNK1 truncations (1–491, 1–190, 191–491, 491–2382); expressed in transfected cells; host or cells: HEK293T
Description: as §2, §1, §3

[1] = system: WNK1 phosphorylation at Thr58; assay: Western blotting of WNK1 phosphorylation in cochlear nucleus; assay type: cell-based; conditions: mouse cochlear nuclei, 30 min
Experimental: To validate these findings, SH‐SY5Y cells were incubated in a serum‐free medium with bilirubin (6 µM) or an equivalent amount of DMSO as the control, followed by protein denaturation at different temperatures (Figure 1A).
C57BL/6 mice at postnatal day 10 (P10) were euthanized on ice, and their cochlear nuclei were dissected and incubated in artificial cerebrospinal fluid (ACSF), with or without 3 µM bilirubin, followed by rapid freezing in liquid nitrogen. The ACSF composition was 124 mM NaCl, 5 mM KCl, 1.2 mM KH2PO4, 1.3 mM MgCl2, 2.4 mM CaCl2, 24 mM NaHCO3, and 10 mM glucose (pH 7.4).
Cells or tissues were lysed by grinding in RIPA buffer (cat. no. PC101; Epizyme Biotech) supplemented with a protease inhibitor cocktail (cat. no. 5872S; Cell Signaling Technology) at 4 °C. The lysate was subsequently centrifuged at 16000 × g for 30 min at 4 °C and the resulting supernatant was collected. The total protein concentration was determined using the Pierce BCA Protein Assay Kit (cat. no. 23 225, Thermo Fisher Scientific). The samples were denatured in a Protein Sample Loading Buffer (cat. no. LT101; Epizyme Biotech) at 95 °C and subjected to SDS‐polyacrylamide gel electrophoresis. Following electrophoresis, the proteins were transferred onto a nitrocellulose membrane (cat. no. HATF00010; Millipore) using a transfer buffer composed of 25 mM Tris, 190 mM glycine, and 20% methanol. […]

[2] = system: cochlear nuclei and hippocampus neurons; assay: Neuronal excitability in cochlear nuclei and hippocampus neurons; assay type: cell-based
Description: To ascertain whether bilirubin regulates chloride ions through WNK1, we generated Wnk1 gene knockout primary cultured neurons. We achieved neuron‐specific deletion of Wnk1 in hippocampal neurons by transducing primary neurons isolated from Wnk1^flox/flox embryonic mice with a lentivirus expressing hSyn‐Cre‐EGFP.^[ [33], [34] ^] […] Intracellular chloride concentration is crucial for modulating inhibitory synaptic transmission and, consequently, neuronal excitability.

[3] = Osmolarity of different bilirubin concentrations; assay type: physicochemical; conditions: low concentrations of bilirubin
Description: To further investigate the impact of bilirubin on WNK1 kinase activity, we generated hippocampal neuron‐specific Wnk1 knockout mice. Given that conventional Wnk1 knockout mice are embryonically lethal, we employed the CRISPR/Cas9 method to create mice carrying the floxed Wnk1 gene. Then we crossed Thy1‐Cre mice with Wnk1^flox/flox mice to generate hippocampal neuron‐specific Wnk1 knockout mice. We examined the effects of bilirubin on the phosphorylation of WNK1 downstream targets, Ste20‐related proline alanine‐rich kinase (SPAK), and oxidative stress‐responsive kinase 1 (OSR1), in the hippocampus of Wnk1^flox/flox and Wnk1^flox/flox,Thy1‐Cre mice. Upon bilirubin treatment, phosphorylation of OSR1 and SPAK was elevated in the hippocampus of Wnk1^flox/flox mice. […] These findings indicate that the effect of bilirubin on OSR1 and SPAK phosphorylation is WNK1‐dependent (Figure 4B). To rule out the potential effects of osmolarity on the phosphorylation of WNK1, OSR1, and SPAK, we measured the osmolarity of different bilirubin concentrations.

T2 sequence (Q9H4A3 191-491): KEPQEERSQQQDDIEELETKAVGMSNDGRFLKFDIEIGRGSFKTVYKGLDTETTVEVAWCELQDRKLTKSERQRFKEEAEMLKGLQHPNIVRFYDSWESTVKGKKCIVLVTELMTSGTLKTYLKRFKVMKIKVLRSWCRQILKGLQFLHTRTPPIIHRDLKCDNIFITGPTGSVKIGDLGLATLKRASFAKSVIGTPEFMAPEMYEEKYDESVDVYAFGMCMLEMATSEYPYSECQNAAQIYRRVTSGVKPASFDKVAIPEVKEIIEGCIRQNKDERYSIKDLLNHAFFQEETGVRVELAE
T1 sequence (Q9H4A3 whole entry, the tested form may be a part): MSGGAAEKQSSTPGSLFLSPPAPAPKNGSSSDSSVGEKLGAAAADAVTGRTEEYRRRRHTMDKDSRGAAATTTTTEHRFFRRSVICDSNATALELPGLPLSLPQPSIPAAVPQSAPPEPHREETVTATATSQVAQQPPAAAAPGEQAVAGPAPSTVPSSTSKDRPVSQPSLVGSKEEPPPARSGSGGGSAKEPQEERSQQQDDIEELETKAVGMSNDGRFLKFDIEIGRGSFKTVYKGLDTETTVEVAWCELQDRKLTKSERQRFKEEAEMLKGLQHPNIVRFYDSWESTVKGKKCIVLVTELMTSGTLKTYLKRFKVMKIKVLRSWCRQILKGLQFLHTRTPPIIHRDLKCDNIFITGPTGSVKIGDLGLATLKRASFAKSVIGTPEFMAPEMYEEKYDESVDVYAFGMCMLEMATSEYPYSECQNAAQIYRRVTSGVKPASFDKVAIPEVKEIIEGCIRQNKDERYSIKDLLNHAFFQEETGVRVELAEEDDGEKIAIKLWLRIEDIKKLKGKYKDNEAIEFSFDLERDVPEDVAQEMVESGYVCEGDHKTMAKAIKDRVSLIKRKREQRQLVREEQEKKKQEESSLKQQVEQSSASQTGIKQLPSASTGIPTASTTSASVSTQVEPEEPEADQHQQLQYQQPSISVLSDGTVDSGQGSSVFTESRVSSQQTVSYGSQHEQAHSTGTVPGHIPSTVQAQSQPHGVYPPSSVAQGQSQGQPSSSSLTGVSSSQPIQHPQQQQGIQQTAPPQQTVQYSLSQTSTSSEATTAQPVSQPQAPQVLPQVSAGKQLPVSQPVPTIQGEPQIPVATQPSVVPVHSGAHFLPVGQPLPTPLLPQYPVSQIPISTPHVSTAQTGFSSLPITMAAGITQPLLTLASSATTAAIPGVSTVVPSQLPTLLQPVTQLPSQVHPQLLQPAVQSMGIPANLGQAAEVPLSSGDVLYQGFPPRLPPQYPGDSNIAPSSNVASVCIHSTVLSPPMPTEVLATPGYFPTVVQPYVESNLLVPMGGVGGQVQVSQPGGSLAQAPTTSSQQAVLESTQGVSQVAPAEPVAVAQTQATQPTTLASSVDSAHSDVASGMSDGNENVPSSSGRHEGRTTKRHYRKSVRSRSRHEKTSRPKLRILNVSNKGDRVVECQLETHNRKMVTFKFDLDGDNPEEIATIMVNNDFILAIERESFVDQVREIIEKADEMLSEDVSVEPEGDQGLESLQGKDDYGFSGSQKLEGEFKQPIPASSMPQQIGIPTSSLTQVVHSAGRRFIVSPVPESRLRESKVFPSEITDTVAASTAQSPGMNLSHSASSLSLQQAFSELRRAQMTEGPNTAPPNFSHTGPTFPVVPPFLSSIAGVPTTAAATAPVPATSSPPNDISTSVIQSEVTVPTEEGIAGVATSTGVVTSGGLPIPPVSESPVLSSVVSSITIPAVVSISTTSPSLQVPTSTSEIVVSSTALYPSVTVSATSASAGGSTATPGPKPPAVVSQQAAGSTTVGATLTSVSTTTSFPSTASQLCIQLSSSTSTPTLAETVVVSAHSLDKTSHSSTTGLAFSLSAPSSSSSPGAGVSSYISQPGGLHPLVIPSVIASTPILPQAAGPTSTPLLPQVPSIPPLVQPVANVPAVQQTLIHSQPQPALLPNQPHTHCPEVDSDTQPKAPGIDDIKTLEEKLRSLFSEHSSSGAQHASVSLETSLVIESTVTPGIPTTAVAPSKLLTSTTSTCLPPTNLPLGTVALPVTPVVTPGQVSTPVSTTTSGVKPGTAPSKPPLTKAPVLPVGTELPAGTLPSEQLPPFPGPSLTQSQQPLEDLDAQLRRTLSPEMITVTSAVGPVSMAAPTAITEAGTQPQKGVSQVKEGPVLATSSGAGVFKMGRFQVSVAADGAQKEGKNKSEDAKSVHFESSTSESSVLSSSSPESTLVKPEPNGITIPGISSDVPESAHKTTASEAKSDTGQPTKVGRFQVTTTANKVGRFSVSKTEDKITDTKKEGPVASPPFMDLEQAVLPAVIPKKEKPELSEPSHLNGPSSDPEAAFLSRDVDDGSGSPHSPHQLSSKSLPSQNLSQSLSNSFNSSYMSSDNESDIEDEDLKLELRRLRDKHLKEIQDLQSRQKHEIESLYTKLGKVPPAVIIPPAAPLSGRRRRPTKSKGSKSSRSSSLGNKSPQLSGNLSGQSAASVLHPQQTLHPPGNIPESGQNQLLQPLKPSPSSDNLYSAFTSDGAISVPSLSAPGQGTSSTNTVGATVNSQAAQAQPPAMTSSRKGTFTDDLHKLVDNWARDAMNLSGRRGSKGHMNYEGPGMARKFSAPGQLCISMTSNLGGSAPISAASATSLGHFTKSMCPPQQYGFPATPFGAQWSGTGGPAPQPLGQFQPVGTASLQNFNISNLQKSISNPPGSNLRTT
T3 sequence (Q9H4A3 1-190): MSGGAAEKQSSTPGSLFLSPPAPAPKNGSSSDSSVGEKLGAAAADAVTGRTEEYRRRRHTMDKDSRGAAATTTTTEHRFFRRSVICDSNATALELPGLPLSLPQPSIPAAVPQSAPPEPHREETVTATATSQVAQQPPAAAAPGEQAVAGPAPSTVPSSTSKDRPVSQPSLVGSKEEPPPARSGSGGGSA

- Kd (full-length hWNK1): 0.0672 µM
- Kd (WNK1 (191–491)): 0.028 µM
- Kd (WNK1 (1–190)): 1.83 µM
- osmolarity [3]: didn't change the osmolarity
SMILES: C=CC1=C(C)/C(=C/c2[nH]c(Cc3[nH]c(/C=C4\NC(=O)C(C)=C4C=C)c(C)c3CCC(=O)O)c(CCC(=O)O)c2C)NC1=O [bilirubin, Bilirubin]
- WNK1 phosphorylation at Thr58 (Thr60 in humans) [1]: substantial reduction
- neural excitability [2]: induces neural hyperexcitability

Source: article PMC12362796, “Bilirubin Targeting WNK1 to Alleviate NLRP3‐Mediated Neuroinflammation” (Advanced Science, 2025)
